The source of these data is patent US20050042209A1, “MUC1 extracellular domain and cancer treatment compositions and methods derived therefrom” (priority 2000, published 2005).

In one data set the test system is cytochrome c release. Nature of the data set: Cytochrome c release (immunoblot) in ZR-75-1 cells. As to conditions: ZR-75-1/vector cells compared to ZR-75-1/MUC1siRNA cells. The data set is classed as cell-based, human. As to the method: Immunoblot analysis: Lysates were prepared from cells as described (Li et al., 2001]. Equal amounts of protein were separated by SDS-PAGE and transferred with anti-cytochrome c (BD PharMingen, San Diego, Calif.). The immunocomplexes were detected with horseradish peroxidase-conjugated secondary antibodies and enhanced chemiluminescence (ECL, Amersham Biosciences, Piscataway, N.J.). Intensity of the signals was determined by densiometric scanning.
(§1) As a control, stable transfection of ZR-75-1 cells with the empty reterovirus had no effect on MUC1 expression. […] By contrast, CDDP treatment of ZR-75-1/MUC1siRNA cells was associated with a clear loss of ΔΨm. In concert with these findings, cytochrome C release, as measured by immunoblot, was attenuated in CDDP-treated ZR-75-1/vector cells, as compared to ZR-75-1/MUC1siRNA cells. […] Treatment of ZR-75-1/vector cells with CDDP was associated with the induction of approximately 25% apoptosis.
On the technique in general: In western blotting, separated proteins are transferred to a membrane and probed.

For data set [1], the system named is HCT116 cells. The data set can be described thus: Cell death of HCT116 transfectants. The data set is classed as cell-based, human. Particulars: 72 h. The method, then: Results. Treatment of cells with DNA-damaging agents is associated with release of mitochondrial cytochrome c and activation of the intrinsic apoptotic pathway. To determine if mitochondrial localization of the MUC1 C-ter affects cytochrome c release, the HCT116 transfectants were treated with cisplatin (CDDP). […] Release of cytochrome c in the response to genotoxic stress is associated with activation of caspase-3 and cleavage of PKCδ (Emoto et al., 1995). To assess the effects of MUC1 on caspase-3 activation, CDDP-treated cells were analyzed for cleavage of pro-caspase-3. […] Smac/DIABLO is a mitochondrial protein that induces caspase-dependent cell death by interacting with inhibitor of apoptosis proteins (IAPs) and blocking their caspase inhibitory activity (Du et al., 2000; Verhagen et al., 2000). To determine if MUC1 attenuates release of Smac/DIABLO, HCT116/vector, HCT116/MUC1 and HCT116/MUC(Y46F) cells were treated with CDDP for 24, 48 and 72 h, and cytosolic lysates were subjected to immunoblot analysis. […] CDDP treatment of HCT116/vector and HCT116/MUC1(Y46F) cells for 72 h was associated with>90% cell death and decreases in the β-actin signals used as a control for loading. By contrast, treatment of HCT116/MUC1 cells with CDDP for 72 h was associated with cessation of cell growth and<30% cell death. […]

The next data set deals with ZR-75-1 tumors. The data set can be described thus: ZR-75-1 tumor growth in nude mice. The data set is classed as in vivo. Particulars: 7 mg/Kg CDDP intraperitoneal, FIG. 12. As to the method:
FIG. 12: Summary of data showing that MUC1 confers resistance to CDDP in vivo. ZR-75-1/vector cells (∘, ●) or ZR-75-1/MUC1siRNA (¤, ▪) cells (1×10^7) were injected into nude mice that had been pretreated with β-estradiol. The mice were treated as indicated (arrows) with intraperitoneal injections of PBS (¤, ∘) or 7 mg/Kg CDDP (●, ▪). The results are expressed as the tumor volume (mean±S.D>of 4-8 mice per group.
To determine if knocking-down MUC1 affects chemosensitivity in vivo, mice were injected with ZR-75-1 cells stably expressing the empty viral vector or MUCsiRNA.

For a further data set, the system named is MUC1. Nature of the data set: MUC1 induction by oxidative and genotoxic stress (immunoblot). Particulars: available evidence; cells not given. As to the method: To determine whether MUC1 is induced in response to oxidative stress, MCF-7 cells were treated with hydrogen peroxide. Cell lysates were analyzed by immunoblotting with anti-DF3/MUC1 antibody. Lysates were prepared by suspending MCF-7 cells in lysis buffer (50 mM Tris, pH 7.6, 150 mM NaCl, 1 mM PMSF, 3 mM NaF, 1 mM sodium vandate, 1 mM DTT with protease inhibitors and either 1% NP-40 or 1% Brij-96) for 30 min. on ice. Lysates were cleared by centifugation and equal amounts of proteins were resolved by SDS-PAGE. Proteins were then transferred to nitrocellulose filters, blocked by incubation in 5% non-fat dry milk in PBS with 0.05% Tween-20 and probed with anti-MUC1 antibody (Pandey et al., 1995). Anti-actin was used as a control.
Similar studies were performed with genotoxic agents.

Data set [2] relates to ZR-75-1 breast carcinoma cells. The data set can be described thus: Apoptosis assay (sub-G1 DNA) in ZR-75-1 cells. The data set is classed as cell-based, human. The method, then:
Apoptosis assay: Apoptotic cells were quantified by analysis of sub-G1 DNA. Cells were harvested, washed with PBS, fixed with 80% ethanol, and incubated in PBS containing 20 ng/ml RNase (Roche) for 60 min at 37° C. Cells were stained with 40 μg/ml propidium iodide (Sigma) for 30 min at room temperature in the dark. DNA content was analyzed by flow cytometry (EPICS XL-MCL, Coulter Corp.).
as §1

The subject of data set [3] is intrinsic apoptotic pathway. The data set can be described thus: Release of mitochondrial factors and caspase-3 activation in HCT116 transfectants. The data set is classed as cell-based, human. The method, then:
Methods. Experimental procedures and methods were as described in Example 15.
Results. Treatment of cells with DNA-damaging agents is associated with release of mitochondrial cytochrome c and activation of the intrinsic apoptotic pathway. To determine if mitochondrial localization of the MUC1 C-ter affects cytochrome c release, the HCT116 transfectants were treated with cisplatin (CDDP). […] Release of cytochrome c in the response to genotoxic stress is associated with activation of caspase-3 and cleavage of PKCδ (Emoto et al., 1995). To assess the effects of MUC1 on caspase-3 activation, CDDP-treated cells were analyzed for cleavage of pro-caspase-3. […] Smac/DIABLO is a mitochondrial protein that induces caspase-dependent cell death by interacting with inhibitor of apoptosis proteins (IAPs) and blocking their caspase inhibitory activity (Du et al., 2000; Verhagen et al., 2000). To determine if MUC1 attenuates release of Smac/DIABLO, HCT116/vector, HCT116/MUC1 and HCT116/MUC(Y46F) cells were treated with CDDP for 24, 48 and 72 h, and cytosolic lysates were subjected to immunoblot analysis. […] CDDP treatment of HCT116/vector and HCT116/MUC1(Y46F) cells for 72 h was associated with>90% cell death and decreases in the β-actin signals used as a control for loading. By contrast, treatment of HCT116/MUC1 cells with CDDP for 72 h was associated with cessation of cell growth and<30% cell death. These findings indicate that mitochondrial localization of MUC1 C-ter attenuates DNA damage-induced activation of the intrinsic apoptotic pathway.

Data set [4] relates to HCT116 cells. The data set can be described thus: Apoptosis (sub-G1 DNA, TUNEL) in HCT116 transfectants. As to conditions: FIG. 15. It counts as cell-based, human. As to the method:
Methods. Apoptotic cells were quantified by analysis of sub-G1 DNA and TUNEL staining. To assess sub-G1 DNA content, cells were harvested, washed with PBS, fixed with 80% ethanol, and incubated in PBS containing 20 ng/ml RNase (Roche) for 60 min at 37° C. Cells were then stained with […] propidium iodide (Sigma) for 30 min at room temperature in the dark. DNA content was analyzed by flow cytometry (EPICS XL-MCL, Coulter Corp.). Apoptotic cells with DNA fragmentation were detected by staining with the In Situ cell death detection kit (TUNEL; Roche Applied Science) and visualized by confocal microscopy (ZEISS LSM510). After staining, cells were analyzed by flow cytometry. Other experimental procedures and methods were as described in Example 15.
Results. To determine if MUC1 affects the induction of apoptosis by CDDP, cells were analyzed for sub-G1 DNA content. […] Stimulation of cell surface death receptors with TNF-α or the TNF-related apoptosis inducing factor TRAIL is associated with activation of the extrinsic apoptotic pathway. To determine if MUC1 affects death receptor-induced apoptosis, HCT116 cells were treated with TNF-α.

Data set [5] deals with ZR-75-1 breast carcinoma cells. The data set can be described thus: Mitochondrial transmembrane potential in ZR-75-1 cells. The data set is classed as cell-based, human. The method, then: Analysis of mitochondrial transmembrane potential: Cells were incubated with 0.5 nM 3,3-dihexyloxocarbocyanine iodide (DiOC6[3]; Molecular Probes) for 30 min and analyzed by flow cytometry as described (Shapiro, 2000).
as §1

In data set [6] the test system is MUC1 C-ter. The data set can be described thus: Expression of MUC1 C-ter with CHX. It counts as cell-based, human.
Data set [7] has as its system MUC1 C-ter. Nature of the data set: Mitochondrial localization of MUC1 C-ter (immunoblot of mitochondrial fractions). The data set is classed as cell-based, human. Particulars: HCT116/MUC1 or HCT116/MUC1(Y46F) cells; EGF 10 ng/ml. As to the method:
Cell culture. Human HCT116 colon carcinoma cells (ATCC, Manassas, Va.) were cultured in Dulbecco's modified Eagle's medium/F12 with 10% heat-inactivated fetal bovine serum, 100 units/ml penicillin, […] streptomycin and 2 mM L-glutamine.
Cell transfections. HCT116 cells were transfected with pIRES-puro2, pIRESpuro2-MUC1 or pIRES-puro2-MUC1(Y46F) as described (Li et al., 2001a). SW480 cells were transfected with pIRES-puro2 or pIRES-puro2-MUC1. Stable transfectants were selected in the presence of 0.4 mg/ml puromycin (Calbiochem-Novabiochem, San Diego, Calif.). Two independent transfections were performed for each vector.
Immunoblot analysis. Lysates were prepared from subconfluent cells as described (Li et al., 2001a). Equal amounts of protein were separated by SDS-PAGE and transferred to nitrocellulose membranes. […] The immunocomplexes were detected with horseradish peroxidase-conjugated secondary antibodies and enhanced chemiluminescence (ECL, Amersham Biosciences, Piscataway, N.J.). Intensity of the signals was determined by densitometric scanning. […]
To extend these findings, MUC1 C-ter was expressed with a GFP tag at the N-terminus and assessed mitochondrial localization. […]

`[NH2][Pt]([NH2])([Cl])[Cl]` [CDDP, cisplatin]: the “cytochrome C release (immunoblot)” value with cytochrome c release was “attenuated”. Also, the cell death in the data set on HCT116 cells [1] (HCT116/MUC1 cells) was below 30%; with HCT116 cells [1] (HCT116/vector and HCT116/MUC1(Y46F) cells), above 90%. Moreover, the “sensitivity of tumors to treatment” value with ZR-75-1 tumors (ZR-75-1/MUC1siRNA tumors) is listed as “considerably more sensitive”. Besides, the tumor growth result in the data set on ZR-75-1 tumors (ZR-75-1/vector tumors) is “partial slowing”. Also, the “MUC1 induction by diverse cytotoxic agents” value with MUC1 is given as “induced”. Besides, the apoptosis result is “over 60%” in [2] (ZR-75-1/MUC1siRNA cells) and “approximately 25%” in data set [2] (ZR-75-1/vector cells). The “release of Smac/DIABLO” value in data set [3] (24, 48 and 72 h, HCT116/MUC1 compared to HCT116/vector and HCT116/MUC1(Y46F) cells) is recorded as “attenuated”. For the same compound, in data set [3] (HCT116/MUC1(Y46F) cells), the “CDDP-induced cytochrome c release” value is given as “ineffective in blocking”. For the same compound, the “release of cytochrome c” value in [3] (HCT116/MUC1 cells) is on record as “significantly attenuated”. In addition, the “caspase-3-mediated cleavage of PKCδ” value in data set [3] (HCT116/MUC1 compared to HCT116/vector and HCT116/MUC1(Y46F) cells) is given as “attenuated”. In data set [3] (HCT116/MUC1 compared to HCT116/vector cells), the “CDDP-induced activation of caspase-3” value is “attenuates”. For the same compound, the “release of apoptosis-inducing factor (AIF)” value in data set [3] (HCT116/MUC1 compared to vector or MUC1(Y46F) cells) is “attenuated release”. Moreover, in data set [3] (HCT116/vector cells), the cytosolic cytochrome c result is on record as “increased levels”. Besides, the “attenuation of CDDP-induced apoptosis” value in the data set on HCT116 cells [4] (HCT116/MUC1(Y46F) cells) is reported as “not”. Further, the CDDP-induced apoptosis entry with HCT116 cells [4] (HCT116/MUC1 cells) was “attenuated”. For the same compound, the “apoptosis (sub-G1 DNA)” value with HCT116 cells [4] (HCT116/vector cells, 100 μM CDDP for 24 h) was “approximately 40%”. The “mitochondrial transmembrane potential (ΔΨm)” value in [5] (ZR-75-1/MUC1siRNA cells) is “clear loss”; in [5] (ZR-75-1/vector cells), “little if any decrease”.

With `C[C@@H]1C[C@@H]([C@H](O)CC2CC(=O)NC(=O)C2)C(=O)[C@@H](C)C1` [CHX, cycloheximide], in the data set with MUC1 C-ter [6], the “expression of MUC1 C-ter” value is reported as “no apparent effect”.

With “EGF: EGF (10 ng/ml; Calbiochem-Novabiochem)”, the “mitochondrial targeting of MUC1 C-ter” value with MUC1 C-ter [7] is “little effect”.
